Source: patent US7598234B2, “Steroid derived antibiotics” (Brigham Young University, priority 1998, dated 2009)
Converted amounts (≈) assume the structure as drawn.

Legend:
[1] = test system: Pseudomonas aeruginosa (ATCC 27853); assay: MIC and MBC measurement with Pseudomonas aeruginosa (ATCC 27853); assay type: cell-based; conditions: Table 6; P. aureginosa (ATCC 27853)
Source text: (§1) General: Microorganisms. Reference strains were purchased from the American Type Culture Collection (Rockville, Md.) or Bactrol disks from Difeo Laboratories (Detroit, Mich.). The following specific ATCC strains were used: 10798 Escherichia coli, 25922 Escherichia coli, 13883 Klebsiella pneumoniae, 27853 Pseudomonas aeruginosa, 14028 Salmonella typhimurium, 29212 Enterococcus faecalis, 25923 Staphylococcus aureus, 19615 Streptococcus pyogenes, and 90028 Candida albicans. Bacterial strains were maintained on Mueller-Hinton agar plates, and Candida albicans was maintained on Sabouraud Dextrose agar plates.
(§2) Tryptic soy broth (TSB) was made by dissolving 27.5 grams of tryptic soy broth without dextrose (DIFCO Laboratories) in 1 liter of deionized water and sterilizing at 121° C. for 15 minutes. Solid agar (TSA) plates were made by dissolving 6.4 grams of tryptic soy broth and 12 grams of agar (purified grade, Fischer Scientific) in 800 mL of deionized water and sterilizing at 121° C. for 20 minutes. Aliquots (20 mL) of the homogeneous solution were then poured in sterile plastic petri dishes (100×15 mm, Fisher Scientific). Solutions of compounds were made by dissolving the HCl salt of the respective compound into an appropriate amount of deionized and sterilized water followed by microfiltration.
(§3) Aliquots of 1 mL of the suspension were added to test tubes containing 1 mL TSB and incrementally varied concentrations of cholic acid derivatives and/or erythromycin or novobiocin. In the sensitization experiments, erythromycin or novobiocin were added 15 minutes later than the cholic acid derivatives. The samples were subjected to stationary incubation at 37° C. for 24 hours. Sample turbidity was determined by measuring absorption at 760 nm (HP 8453 UV-Visible Chemstation, Hewlett Packard). Additionally, an alliquot from each of the samples showing no measurable turbidity was subcultured on TSA plates (alliquots were diluted to provide fewer than 300 CFU). Colonies that grew on the subculture after overnight incubation were counted and the number of CFU/mL in the samples were calculated. The calculated values were compared to the number of CFU/mL in the original inoculum.

[2] = test system: Pseudomonas aeruginosa (ATCC 27853); assay: Sensitization to erythromycin, Pseudomonas aeruginosa (ATCC 27853); assay type: cell-based; conditions: Table 7; P. aureginosa (ATCC 27853)
Method: (§4) Alternatively, “fractional inhibitory concentration (FIC)” is also useful for determination of synergy between the compounds of the invention, or the compounds in combination with known antibiotics. FICs can be performed by checkerboard titrations of compounds in one dimension of a microtiter plate, and of antibiotics in the other dimension, for example. The FIC is calculated by looking at the impact of one antibiotic on the MIC of the other and vice versa. […] Preferably, an FIC of less than 0.5 is obtained for synergism. As used herein, FIC can be determined as follows:
as §3, with “inoculum. […]” for “inoculum.”
To measure permeabilization, the FIC values for compounds 1, 2, 5, 106, 10, 112, 133, and 134 with erythromycin, novobiocin, and rifampicin were determined. Concentrations of 0.5, 1.0 or 3.0 μg/mL of these antibiotics were used, and the concentrations of the cholic acid derivatives required to inhibit bacterial growth of Gram-negative strains were determined.

E. coli (ATCC 10798) [3] = assay: Sensitization to erythromycin (concentration lowering the MIC of erythromycin), E. coli (ATCC 10798); assay type: cell-based, Escherichia coli; conditions: for MIC: concentration required to lower the MIC of erythromycin from 70 μg/mL to 1 μg/mL / MBC (with erythromycin): Table 2, E. coli (ATCC 10798); for MBC (with erythromycin): erythromycin sensitization
Method: as §4, §3
(§5) Ability to permeabilize outer membrane: Compounds 11, 106, and 108-114 (FIG. 1) were tested for antibiotic activity. They were also tested for the ability to permeabilize the outer membrane of Gram-negative bacteria, causing sensitization to hydrophobic antibiotics that cannot cross the outer membrane. The permeabilization of the outer membrane was measured using erythromycin and novobiocin.
(§6) The MICs of erythromycin and novobiocin against E. coli (ATCC 10798) at 70 and >500 μg/mL were measured.

E. coli (ATCC 10798) [4] = assay: MIC and MBC measurement with E. coli (ATCC 10798); assay type: cell-based, Escherichia coli
Source text: as §1, §2, §3

E. coli (ATCC 10798) [5] = assay: Sensitization to novobiocin (concentration lowering the MIC of novobiocin), E. coli (ATCC 10798); assay type: cell-based, Escherichia coli
Method: as §4, §3, §5, §6

[6] = Table 9, Escherichia coli (ATCC 10798)

| SMILES | MIC [1] | MIC: concentration required to lower the MIC of erythromycin from 240 μg/mL to 5 μg/mL [2] | MIC: concentration required to lower the MIC of erythromycin from 70 μg/mL to 1 μg/mL (E. coli (ATCC 10798) [3]) | MIC (E. coli (ATCC 10798) [4]; Table 1, E. coli (ATCC 10798)) | MBC (with erythromycin) (E. coli (ATCC 10798) [3]) | MBC (E. coli (ATCC 10798) [4]; Table 1, E. coli (ATCC 10798)) | FIC values with novobiocin (E. coli (ATCC 10798) [5]; [6]) | FIC values with erythromycin (E. coli (ATCC 10798) [3]; [6]) | other results |
| --- | --- | --- | --- | --- | --- | --- | --- | --- | --- |
| C[C@H](CCCN(C)Cc1ccccc1)[C@H]1CC[C@H]2[C@@H]3[C@H](OCCCCN)C[C@@H]4C[C@H](OCCCCN)CC[C@]4(C)[C@H]3C[C@H](OCCCCN)[C@]12C [Compound 3] | 16 µg/mL (≈ 22.5 µM) | 6 µg/mL | 1.5 µg/mL | 6 µg/mL (≈ 8.44 µM) |  |  |  |  |  |
| C[C@H](CCCN(C)Cc1ccccc1)[C@H]1CC[C@H]2[C@@H]3[C@H](OCCN)C[C@@H]4C[C@@H](OCCN)CC[C@]4(C)[C@H]3C[C@H](OCCN)[C@]12C [Compound 8] | 50 µg/mL (≈ 79.7 µM) | 40 µg/mL | 10 µg/mL | 46 µg/mL (≈ 73.4 µM) |  |  |  |  |  |
| CCCCCCCCOCCC[C@@H](C)[C@H]1CC[C@H]2[C@@H]3[C@H](OCCCN)C[C@@H]4C[C@H](OCCCN)CC[C@]4(C)[C@H]3C[C@H](OCCCN)[C@]12C [Compound 9] | 8 µg/mL (≈ 11.8 µM) | 5 µg/mL | 3 µg/mL | 3 µg/mL (≈ 4.42 µM) | 3 µg/mL | 10 µg/mL (≈ 14.7 µM) |  |  |  |
| CC(O)[C@H]1CC[C@H]2[C@@H]3[C@H](OCCCN)C[C@@H]4C[C@H](OCCCN)CC[C@]4(C)[C@H]3C[C@H](OCCCN)[C@]12C (stereo partly drawn) [Compound 11] |  |  | 40 µg/mL | 140 µg/mL (≈ 267 µM) | >160 µg/mL | >160 µg/mL | 0.29 | 0.16 | MIC: concentration required to lower the MIC of novobiocin from >500 μg/mL to 1 μg/mL (E. coli (ATCC 10798) [5]; Table 3, E. coli (ATCC 10798)): 40 µg/mL; MBC (with novobiocin) (E. coli (ATCC 10798) [5]; Table 3, E. coli (ATCC 10798), novobiocin sensitization): 140 µg/mL; (d) Concentration required to lower the MIC of novobiocin from >500 to 1 μg/mL (E. coli (ATCC 10798) [5]; [6]): 40 µg/mL; (a) Concentration required to lower the MIC of erythromycin from 70 to 1 μg/mL (E. coli (ATCC 10798) [3]; [6]): 20 µg/mL; (b) MBC with 1 μg/mL erythromycin (E. coli (ATCC 10798) [3]; [6]): 180 µg/mL; MBC (E. coli (ATCC 10798) [4]; [6]): >160 µg/mL; MIC (E. coli (ATCC 10798) [4]; [6]): 140 µg/mL (≈ 267 µM) |
| C[C@H](CCCOCCC[C@@H](C)[C@H]1CC[C@H]2[C@@H]3[C@H](OCCCN)C[C@@H]4C[C@H](OCCCN)CC[C@]4(C)[C@H]3C[C@H](OCCCN)[C@]12C)[C@H]1CC[C@H]2[C@@H]3[C@H](OCCCN)C[C@@H]4C[C@H](OCCCN)CC[C@]4(C)[C@H]3C[C@H](OCCCN)[C@]12C [Compound 12] |  |  | 1.5 µg/mL | 4 µg/mL (≈ 3.59 µM) | 2.5 µg/mL | 4 µg/mL (≈ 3.59 µM) |  |  | MIC: concentration required to lower the MIC of novobiocin from >500 μg/mL to 1 μg/mL (E. coli (ATCC 10798) [5]; Table 3, E. coli (ATCC 10798)): 2.5 µg/mL |
| C[C@H](CO)[C@H]1CC[C@H]2[C@@H]3[C@H](OCCCN)C[C@@H]4C[C@H](OCCCN)CC[C@]4(C)[C@H]3C[C@H](OCCCN)[C@]12C [Compound 108] |  |  |  |  |  |  | 0.17 | 0.071 |  |
| C[C@H](CCO)[C@H]1CC[C@H]2[C@@H]3[C@H](OCCCN)C[C@@H]4C[C@H](OCCCN)CC[C@]4(C)[C@H]3C[C@H](OCCCN)[C@]12C [Compound 109] |  |  |  |  |  |  | 0.22 | 0.071 |  |
